# Laboratory results from ChEMBL document CHEMBL1148137, “Multibranched polyunsaturated and very-long-chain fatty acids of freshwater Israeli sponges” (J Nat Prod, 2002).
# Legend:
# Bacillus subtilis = experiment: Antibacterial activity against Bacillus subtilis CCM 2216 at 50 ug/disk; assay type: functional; design: unit not given here
# Saccharomyces cerevisiae = experiment: Antifungal activity against Saccharomyces cerevisiae at 50 ug/disk; assay type: functional
# Artemia salina = experiment: Toxicity to Artemia salina assessed as mortality after 24 hrs; assay type: organism-based; conditions: in vivo
# Staphylococcus aureus = experiment: Antibacterial activity against Staphylococcus aureus CCM 2551 at 50 ug/disk; assay type: functional; design: unit not given here; conditions: read-out: Diameter of inhibition zone
# Escherichia coli = experiment: Antibacterial activity against Escherichia coli at 50 ug/disk; assay type: functional
# [1] = read-out: Diameter of inhibition zone
Structure (SMILES),zone of inhibition at 50 µg/disc (Bacillus subtilis; [1]),zone of inhibition at 50 µg/disc (Saccharomyces cerevisiae; [1]),MLD (Artemia salina),zone of inhibition at 50 µg/disc (Staphylococcus aureus),zone of inhibition at 50 µg/disc (Escherichia coli; [1]),zone of inhibition at 50 µg/disc (Bacillus subtilis; read-out: IZ),zone of inhibition at 50 µg/disc (Saccharomyces cerevisiae; read-out: IZ),zone of inhibition at 50 µg/disc (Escherichia coli; read-out: IZ)
CCCCCCCCCC[C@H](C)/C=C(C)/C=C/C(=O)OC,81,0 mm,4.9 µg/mL,56.7,0 mm,–,–,–
C=C(CC/C=C/C=C/CC(C)C)C[C@@H](C)C/C(C)=C/C(=O)OC,74.9,0 mm,1.7 µg/mL,84.1,0 mm,–,–,–
CC[C@H](C)/C=C/C(C)=C/C[C@H](C)/C=C/C=C/C(=O)OC,–,0 mm,10.2 µg/mL,49,0 mm,–,–,–
C=C/C(C)=C/C[C@H](C)/C=C(C)/C=C(C)\C=C\C=C\C(=O)OC,89,0 mm,1.1 µg/mL,62.4,0 mm,–,–,–
CC[C@@H](C)CC/C=C/C(C)=C/[C@H](C)C/C=C/C=C/C(=O)OC,–,–,5 µg/mL,–,–,78.1,0 mm,0 mm
